Columns and labels:
[1] = biological target: Endonuclease 8-like 1 (Homo sapiens) (UniProt Q96FI4); details: Hit No;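 also: fluorescence at 594 nm from quenched duplex DNA oligonucleotides released by NEIL1 cleavage and strand separation, reported as reduction of this enzyme activity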
Description: Inhibition of NEIL1 by quantifying inhibition of NEIL1-mediated cleavage and dissociation of quenched duplex DNA oligonucleotides, measured as fluorescence at 594 nm.

[2] = biological target: T1, Endonuclease 8-like 2 (Homo sapiens) (UniProt Q969S2); details: Hit No;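 also: fluorescence at 594 nm reports NEIL2 cutting and release of a quenched double-stranded DNA oligo substrate, reduced signal read as inhibition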
T1 sequence (whole entry): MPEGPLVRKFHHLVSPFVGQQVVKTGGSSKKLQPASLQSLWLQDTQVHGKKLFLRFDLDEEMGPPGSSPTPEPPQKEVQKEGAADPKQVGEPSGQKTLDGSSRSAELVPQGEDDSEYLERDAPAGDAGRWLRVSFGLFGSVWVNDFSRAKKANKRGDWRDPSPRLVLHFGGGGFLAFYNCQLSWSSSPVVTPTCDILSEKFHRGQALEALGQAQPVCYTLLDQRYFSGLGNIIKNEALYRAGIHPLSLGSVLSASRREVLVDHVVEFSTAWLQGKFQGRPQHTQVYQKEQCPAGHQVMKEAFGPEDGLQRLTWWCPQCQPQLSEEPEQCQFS
Description: Inhibition of NEIL2 by quantifying inhibition of NEIL2-mediated cleavage and dissociation of quenched duplex DNA oligonucleotides, measured as fluorescence at 594 nm.

[3] = biological target: N-glycosylase/DNA lyase (Homo sapiens) (UniProt O15527); details: Hit No;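 also: OGG1 cleavage of a quenched duplex DNA oligonucleotide, coupled to APE1 for strand incision, read as fluorescence at 594 nm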
Description: Inhibition of OGG1 by quantifying inhibition of OGG1-mediated cleavage and dissociation of quenched duplex DNA oligonucleotides, measured as fluorescence at 594 nm. To generate a functional strand incision and increase turn-over this assay is coupled to APE1.

[4] = biological target: T2, Endonuclease III-like protein 1 (Homo sapiens) (UniProt P78549); details: Compound Concentration 10.0 uM, Hit No;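 also: enzyme assay tracking NTHL1 cutting and release of a quenched double-stranded DNA oligo substrate, read as fluorescence at 594 nm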
T2 sequence (whole entry): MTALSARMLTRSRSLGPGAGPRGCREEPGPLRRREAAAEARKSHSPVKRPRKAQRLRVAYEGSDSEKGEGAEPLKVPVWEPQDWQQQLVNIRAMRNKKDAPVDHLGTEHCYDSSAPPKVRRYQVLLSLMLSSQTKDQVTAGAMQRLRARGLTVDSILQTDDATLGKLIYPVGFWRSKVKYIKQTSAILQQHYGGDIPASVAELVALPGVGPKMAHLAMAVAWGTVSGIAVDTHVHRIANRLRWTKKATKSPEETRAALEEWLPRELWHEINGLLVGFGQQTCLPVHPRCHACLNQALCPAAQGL
Description: Inhibition of NTHL1 by quantifying inhibition of NTHL1-mediated cleavage and dissociation of quenched duplex DNA oligonucleotides, measured as fluorescence at 594 nm.

[5] = biological target: T3, Single-strand selective monofunctional uracil DNA glycosylase (Homo sapiens) (UniProt Q53HV7); details: Hit No;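 also: enzymatic SMUG1 assay coupled with APE1, reading fluorescence at 594 nm released when a quenched double-stranded DNA oligonucleotide substrate is cleaved and separated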
T3 sequence (whole entry): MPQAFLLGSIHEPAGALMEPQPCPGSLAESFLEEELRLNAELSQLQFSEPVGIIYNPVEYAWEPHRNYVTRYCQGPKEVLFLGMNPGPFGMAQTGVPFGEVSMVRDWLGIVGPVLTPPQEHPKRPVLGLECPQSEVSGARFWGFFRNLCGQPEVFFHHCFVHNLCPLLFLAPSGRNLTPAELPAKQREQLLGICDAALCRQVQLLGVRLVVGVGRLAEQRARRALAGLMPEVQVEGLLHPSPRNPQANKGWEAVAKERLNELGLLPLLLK
Description: Inhibition of SMUG1 by quantifying inhibition of SMUG1-mediated cleavage and dissociation of quenched duplex DNA oligonucleotides, measured as fluorescence at 594 nm. To generate a functional strand incision and increase turn-over this assay is coupled to APE1.

[6] = biological target: Uracil-DNA glycosylase (Homo sapiens) (UniProt P13051); details: Hit No;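 also: UNG excision on a quenched double-stranded DNA oligo probe, with APE1 added for strand incision and turnover, read as fluorescence at 594 nm as strands separate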
Description: Inhibition of UNG by quantifying inhibition of UNG-mediated cleavage and dissociation of quenched duplex DNA oligonucleotides, measured as fluorescence at 594 nm. To generate a functional strand incision and increase turn-over this assay is coupled to APE1.

[7] = biological target: Methyl-CpG-binding domain protein 4 (Homo sapiens) (UniProt O95243); details: Hit No;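 also: MBD4 activity read as fluorescence at 594 nm from cleavage and release of a quenched duplex DNA oligonucleotide, with APE1 coupled to incise the strand and raise turnover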
Description: Inhibition of MBD4 by quantifying inhibition of MBD4-mediated cleavage and dissociation of quenched duplex DNA oligonucleotides, measured as fluorescence at 594 nm. To generate a functional strand incision and increase turn-over this assay is coupled to APE1.

[8] = biological target: G/T mismatch-specific thymine DNA glycosylase (Homo sapiens) (UniProt Q13569); details: Hit No;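 also: human TDG cleavage of quenched duplex DNA oligonucleotides coupled to APE1, strand release read as fluorescence at 594 nm, inhibition of TDG activity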
Sequence of G/T mismatch-specific thymine DNA glycosylase (Homo sapiens) (Q13569 whole entry): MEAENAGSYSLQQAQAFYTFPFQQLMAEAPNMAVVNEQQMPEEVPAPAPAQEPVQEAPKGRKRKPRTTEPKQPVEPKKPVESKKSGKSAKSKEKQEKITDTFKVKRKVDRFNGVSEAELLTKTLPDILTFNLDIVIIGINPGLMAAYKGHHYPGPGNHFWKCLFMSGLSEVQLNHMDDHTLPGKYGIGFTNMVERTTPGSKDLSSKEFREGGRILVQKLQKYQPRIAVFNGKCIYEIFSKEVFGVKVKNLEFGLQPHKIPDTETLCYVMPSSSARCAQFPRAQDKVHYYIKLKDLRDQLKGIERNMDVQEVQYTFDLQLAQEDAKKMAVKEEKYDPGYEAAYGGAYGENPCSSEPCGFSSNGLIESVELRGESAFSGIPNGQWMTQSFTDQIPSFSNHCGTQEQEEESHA
Description: Inhibition of TDG by quantifying inhibition of TDG-mediated cleavage and dissociation of quenched duplex DNA oligonucleotides, measured as fluorescence at 594 nm. To generate a functional strand incision and increase turn-over this assay is coupled to APE1.

Sequence of Uracil-DNA glycosylase (Homo sapiens) (P13051 whole entry, the tested form may be a part): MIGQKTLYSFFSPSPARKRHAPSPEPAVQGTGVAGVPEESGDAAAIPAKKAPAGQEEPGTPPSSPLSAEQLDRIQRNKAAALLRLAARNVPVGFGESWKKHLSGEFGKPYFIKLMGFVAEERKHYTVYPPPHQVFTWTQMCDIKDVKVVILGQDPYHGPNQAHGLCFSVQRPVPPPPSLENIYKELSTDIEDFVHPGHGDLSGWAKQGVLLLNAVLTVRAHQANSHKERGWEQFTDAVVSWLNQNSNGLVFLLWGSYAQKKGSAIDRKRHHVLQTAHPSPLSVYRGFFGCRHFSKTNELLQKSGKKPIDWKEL
Sequence of Methyl-CpG-binding domain protein 4 (Homo sapiens) (O95243 whole entry, the tested form may be a part): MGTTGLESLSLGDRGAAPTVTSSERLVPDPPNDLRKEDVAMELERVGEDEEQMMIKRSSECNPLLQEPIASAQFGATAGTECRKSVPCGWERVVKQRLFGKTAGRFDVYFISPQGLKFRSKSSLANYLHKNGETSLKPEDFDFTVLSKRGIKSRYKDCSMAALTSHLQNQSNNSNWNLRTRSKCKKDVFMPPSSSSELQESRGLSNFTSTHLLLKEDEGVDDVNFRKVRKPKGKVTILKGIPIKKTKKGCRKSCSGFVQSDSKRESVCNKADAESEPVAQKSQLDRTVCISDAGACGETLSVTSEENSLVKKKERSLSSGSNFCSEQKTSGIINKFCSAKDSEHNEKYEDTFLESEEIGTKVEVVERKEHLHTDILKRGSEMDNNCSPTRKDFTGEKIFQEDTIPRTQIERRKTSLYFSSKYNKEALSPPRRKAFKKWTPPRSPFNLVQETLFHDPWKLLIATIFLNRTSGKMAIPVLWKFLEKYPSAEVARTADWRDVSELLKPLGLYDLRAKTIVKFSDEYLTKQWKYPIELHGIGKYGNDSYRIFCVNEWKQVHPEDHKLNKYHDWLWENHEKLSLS
Sequence of N-glycosylase/DNA lyase (Homo sapiens) (O15527 whole entry): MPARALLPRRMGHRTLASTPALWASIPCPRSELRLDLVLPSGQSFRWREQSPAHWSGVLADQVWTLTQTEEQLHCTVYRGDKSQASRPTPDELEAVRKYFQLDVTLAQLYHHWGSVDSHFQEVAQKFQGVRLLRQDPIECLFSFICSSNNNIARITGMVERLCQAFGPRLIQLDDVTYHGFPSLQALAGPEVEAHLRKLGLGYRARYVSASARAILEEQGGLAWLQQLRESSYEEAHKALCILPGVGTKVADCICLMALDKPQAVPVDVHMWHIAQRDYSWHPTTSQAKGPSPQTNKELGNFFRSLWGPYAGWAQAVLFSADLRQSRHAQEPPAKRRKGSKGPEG
Sequence of Endonuclease 8-like 1 (Homo sapiens) (Q96FI4 whole entry): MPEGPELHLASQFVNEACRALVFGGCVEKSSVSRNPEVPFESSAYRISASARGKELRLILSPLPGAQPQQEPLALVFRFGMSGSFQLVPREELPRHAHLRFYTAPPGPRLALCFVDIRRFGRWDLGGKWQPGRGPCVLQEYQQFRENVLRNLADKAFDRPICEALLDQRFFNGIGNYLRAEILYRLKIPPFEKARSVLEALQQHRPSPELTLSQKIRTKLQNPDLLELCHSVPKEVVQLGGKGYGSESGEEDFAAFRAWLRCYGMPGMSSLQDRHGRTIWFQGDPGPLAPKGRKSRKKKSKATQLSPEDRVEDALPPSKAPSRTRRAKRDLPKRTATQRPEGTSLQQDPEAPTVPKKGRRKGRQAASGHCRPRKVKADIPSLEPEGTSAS

Compound	inhibition ([1]; Compound Concentration 10.0 uM) [%]	inhibition ([2]; Compound Concentration 10.0 uM) [%]	inhibition ([3]; Compound Concentration 10.0 uM) [%]	inhibition [4] [%]	inhibition ([6]; Compound Concentration 10.0 uM) [%]	further results
N#Cc1c(N)nc(SCC(N)=O)c(C#N)c1-c1ccc(OCC2CC2)cc1	5.43	6.25	6.64	13.7	–	–
CS(=O)(=O)NCC[C@H](NC(=O)c1cncc2c1cnn2-c1ccc(F)cc1)c1ccnc(S(C)(=O)=O)c1	–	–	–	–	–	inhibition ([5]; Compound Concentration 1.0 uM): 6.65%; inhibition ([1]; Compound Concentration 1.0 uM): -4.23%; inhibition ([6]; Compound Concentration 1.0 uM): -0.0979%; inhibition ([2]; Compound Concentration 1.0 uM): 0.0213%; inhibition ([3]; Compound Concentration 1.0 uM): -0.705%; inhibition ([7]; Compound Concentration 1.0 uM): 64.7%; inhibition ([8]; Compound Concentration 1.0 uM): 50.4%
O=c1[nH]c(=O)c2nc3ccccc3nc2[nH]1	4.1	5.26	–	14.4	–	–
O=C(Nc1ccc(Oc2ccc(F)cc2)cc1)N1CCc2ncccc2[C@H]1c1ccc(F)cc1	–	–	–	–	–	inhibition ([5]; Compound Concentration 1.0 uM): 3.93%; inhibition ([1]; Compound Concentration 1.0 uM): -9.68%; inhibition ([6]; Compound Concentration 1.0 uM): -3.31%; inhibition ([2]; Compound Concentration 1.0 uM): -5.34%; inhibition ([3]; Compound Concentration 1.0 uM): -3.07%; inhibition ([7]; Compound Concentration 1.0 uM): 71%; inhibition ([8]; Compound Concentration 1.0 uM): 48.4%
O=C(Nc1c(-c2cccs2)nc2ccc(Cl)cn12)c1ccc(Cl)cc1	0.454	6.02	-9.75	13.8	-4.66	–
Cc1c(Cc2ccc3ccccc3n2)c2cc(F)ccc2n1CC(=O)O	9.88	30.2	–	-6.14	–	–
CC(C)CNc1nc(N2CCN(CC3CCCOC3)CC2)ncc1C(=O)NCc1ccccc1 (centres undefined)	2.23	-0.0955	–	-1.08	-1.17	–
CC[C@H](CC(=O)O)n1c(=O)c2ncccc2n(Cc2cn(C)c3cc(C)cc(C)c23)c1=O	0.164	-5.34	0.279	–	0.131	inhibition ([5]; Compound Concentration 10.0 uM): -8.88%; inhibition ([7]; Compound Concentration 10.0 uM): 56.1%; inhibition ([8]; Compound Concentration 10.0 uM): 46.4%
CCC(F)(F)c1cc(N2CCC(S(C)(=O)=O)CC2)nc2sc(C(N)=O)c(N)c12	-3.46	-1.2	-8.21	–	3.95	inhibition ([5]; Compound Concentration 10.0 uM): 8.86%; inhibition ([7]; Compound Concentration 10.0 uM): 38.2%; inhibition ([8]; Compound Concentration 10.0 uM): 39.1%
CCc1nn(CCCN2CCN(c3cccc(Cl)c3)CC2)c(=O)n1CCOc1ccccc1	-3.02	-4.48	–	7.79	-5.52	–
Cc1c(Oc2ccc(F)cc2)c(OC(C)C)nn1-c1ccc(C2CC2)cn1	–	–	–	–	–	inhibition ([5]; Compound Concentration 1.0 uM): 8.77%; inhibition ([1]; Compound Concentration 1.0 uM): -5.44%; inhibition ([6]; Compound Concentration 1.0 uM): 0.0471%; inhibition ([2]; Compound Concentration 1.0 uM): 1.55%; inhibition ([3]; Compound Concentration 1.0 uM): 10.1%; inhibition ([7]; Compound Concentration 1.0 uM): 59%; inhibition ([8]; Compound Concentration 1.0 uM): 52%
CN1C(=O)c2sccc2N(C)c2nc(Nc3ccc(S(N)(=O)=O)cc3)ncc21	–	–	–	–	–	inhibition ([5]; Compound Concentration 1.0 uM): 9.9%; inhibition ([1]; Compound Concentration 1.0 uM): -7.66%; inhibition ([6]; Compound Concentration 1.0 uM): -4.58%; inhibition ([2]; Compound Concentration 1.0 uM): -6.76%; inhibition ([3]; Compound Concentration 1.0 uM): 5.53%; inhibition ([7]; Compound Concentration 1.0 uM): 27.4%; inhibition ([8]; Compound Concentration 1.0 uM): 40.8%
CN1CCN(c2nc3cc(C(F)(F)F)ccc3n3cccc23)CC1	-1.92	16.2	-6.12	16.2	0.522	–
O=C(NCCN1CCC(n2c(=O)[nH]c3cc(Cl)ccc32)CC1)c1ccc(F)cc1	5.43	1.51	–	-1.74	–	inhibition ([8]; Compound Concentration 10.0 uM): -0.00915%
CCOc1ccc(-n2c([C@@H](C)N(Cc3cccnc3)C(=O)Cc3ccc(F)c(C(F)(F)F)c3)nc3ncccc3c2=O)cc1	6.83	-4.17	–	5.52	-5.43	–
Oc1c(CN2CCN(c3ccccn3)CC2)cc(Cl)c2cccnc12	-9.54	7.5	–	39.3	–	–
CSCC[C@H](NC(=O)[C@H](Cc1ccc(O)cc1)NC(=O)[C@H](CCCCN)NC(=O)[C@@H](N)Cc1c[nH]c2ccccc12)C(=O)N[C@H](C(=O)N[C@H](CCSC)C(N)=O)C(C)C	13.1	-4.17	–	21.2	-1.7	–
CN(CCN1CCC(OC(=O)Nc2ccccc2-c2ccccc2)CC1)C(=O)c1ccc(CN2CCC(C(N)=O)CC2)cc1	3.95	-7.72	-7.57	15.8	–	–

Source: ChEMBL document CHEMBL5665443, “Enzyme Inhibitor Single Concentration assay results for EUbOPEN Chemogenomics Library” (2024)
